# Measured values published in patent US8455658B2, “Thiazole and thiadiazole compounds for inflammation and immune-related uses” (Synta Pharmaceuticals Corp., priority 2006, dated 2013).
# System: IL-2 production
# Test: Inhibition of IL-2 production in PHA-activated Jurkat cells (ELISA)
# Format: cell-based
# Conditions: Homo sapiens, Jurkat, 20 h, PHA 2.5 μg/mL, IL-2 ELISA
# Procedure: Jurkat cells were placed in a 96 well plate (0.5 million cells per well in 1% FBS medium) then a test compound of this invention was added at different concentrations. After 10 minutes, the cells were activated with PHA (final concentration 2.5 μg/mL) and incubated for 20 hours at 37° C. under CO2. The final volume was 200 μL. Following incubation, the cells were centrifuged and the supernatants collected and stored at −70° C. prior to assaying for IL-2 production. A commercial ELISA kit (IL-2 Eli-pair, Diaclone Research, Besancon, France) was used to detect production of IL-2, from which dose response curves were obtained.
row,IC50 [nM],SMILES
1,< 30,"O=C(Nc1c(F)cccc1F)c1ncc(-c2cc(C(F)(F)F)ccc2Cl)s1 [Compound 129, 5-(2-chloro-5-(trifluoromethyl)phenyl)-N-(2,6-difluorophenyl)thiazole-2-carboxamide]"
2,100 to 200,"O=C(Nc1c(F)cccc1F)c1ncc(-c2cccc(C(F)(F)F)c2)s1 [Compound 130, N-(2,6-difluorophenyl)-5-(3-(trifluoromethyl)phenyl)thiazole-2-carboxamide]"

# Continued, compound first:
row,SMILES,IC50 [nM]
1,"O=C(Nc1c(F)cccc1F)c1ncc(-c2cccc(-c3ncco3)c2)s1 [Compound 131, N-(2,6-difluorophenyl)-5-(3-(oxazol-2-yl)phenyl)thiazole-2-carboxamide]",50 to 100
2,"Cc1cnccc1NC(=O)c1ncc(-c2cc(-c3ncco3)ccc2C)s1 [Compound 132, 5-(2-methyl-5-(oxazol-2-yl)phenyl)-N-(3-methylpyridin-4-yl)thiazole-2-carboxamide]",> 1000
3,"Cc1cnccc1NC(=O)c1ncc(-c2cc(-c3nccs3)ccc2C)s1 [Compound 133, 5-(2-methyl-5-(thiazol-2-yl)phenyl)-N-(3-methylpyridin-4-yl)thiazole-2-carboxamide]",> 1000
